Laboratory results: PMC10427391, “Identification of Cytochrome P450 2E1 as a Novel Target in Glioma and Development of Its Inhibitor as an Anti‐Tumor Agent” (Advanced Science, 2023)
Where two headings read alike, the source gives them in different places.

How the values were obtained:
CYP2A6 = target: T1, CYP2A6 (Homo sapiens, UniProt P11509); experiment: Selectivity, microsomal incubation, CYP2A6 (coumarin as substrate); assay type: biochemical
T1 construct: A 100 µL microsomal incubation system; from tissue
T1 sequence (P11509 1-494): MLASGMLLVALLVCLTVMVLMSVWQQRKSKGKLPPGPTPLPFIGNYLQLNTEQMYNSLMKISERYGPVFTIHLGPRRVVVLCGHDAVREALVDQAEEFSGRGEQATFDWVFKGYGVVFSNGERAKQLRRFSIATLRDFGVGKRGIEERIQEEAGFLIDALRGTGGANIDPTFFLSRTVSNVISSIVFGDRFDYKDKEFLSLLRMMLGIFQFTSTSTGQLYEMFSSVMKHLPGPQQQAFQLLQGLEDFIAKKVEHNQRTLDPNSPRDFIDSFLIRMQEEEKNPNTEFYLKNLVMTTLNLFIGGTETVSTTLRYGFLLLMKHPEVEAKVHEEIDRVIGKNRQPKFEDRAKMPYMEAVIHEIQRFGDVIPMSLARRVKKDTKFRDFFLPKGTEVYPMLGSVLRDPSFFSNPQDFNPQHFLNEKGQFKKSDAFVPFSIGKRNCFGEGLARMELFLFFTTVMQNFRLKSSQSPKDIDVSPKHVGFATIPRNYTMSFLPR
Experimental: (§1) A 100 µL microsomal incubation system^[ [44] ^] contained probe drugs for each CYP with different series of concentrations, Q11, phosphate buffer, EDTA, magnesium chloride, and substrates (phenacetin for CYP1A2, coumarin for CYP2A6, bupropion for CYP2B6, paclitaxel for CYP2C8, tolbutamide for CYP2C9, omeprazole for CYP2C19, dextromethorphan for CYP2D6, chlorzoxazone for CYP2E1, midazolam for CYP3A4/5). HPLC‐UV and HPLC‐FLD were used to measure the number of metabolites.

[1] = tested on: other CYP enzymes (CYP1A2, CYP2B6, CYP2C8, CYP2C9, CYP2C19, CYP2D6, CYP3A4/5); experiment: Selectivity, microsomal incubation, remaining CYPs; assay type: biochemical; settings: probe substrates
Experimental: as §1

CYP2E1 [2] = target: T2, CYP2E1 (Rattus norvegicus, UniProt P05182); experiment: In vivo inhibition of CYP2E1 activity by metabolism of diethylnitrosamine (DEN), self-controlled cross-administration; design: species or system rats; settings: DEN 50 mg kg^−1 i.p.
T2 construct: from tissue; host or cells: living rats (whole animal, endogenous enzyme)
Experimental: A self‐controlled cross‐administration experiment was designed based on previous report.^[ [45] ^] In the first round of the experiment, a single intraperitoneal injection of diethylnitrosamine at 50 mg kg^−1 was given in the first week. After a 1‐week interval, the second round of the experiment was conducted, where each rat was given Q11 at 6, 30, or 150 mg kg^−1 (i.g), and then, after 5 min, an intraperitoneal injection of diethylnitrosamine at 50 mg kg^−1 was given. Collection of orbital blood was carried out at 2, 7, 15, 30 min and 1, 2, 4, 6, 9, 12, 24, 36, 48, 60 h.

[3] = Bioavailability and pharmacokinetics of Q11 in rats; assay type: in vivo, SD rats
Experimental: Eight healthy male SD rats were randomly divided into 2 groups (4 rats in each group) using a double‐period self‐cross control principle. The first group was given Q11 (30 mg kg^−1, i.g), and the second group was given Q11 (30 mg kg^−1, i.v.). One week later, a second round of experiments was conducted in which Q11 (30 mg kg^−1, i.v.) was given to the first group of rats and Q11 (30 mg kg^−1, i.g) was given to the second group. Collection of orbital blood was carried out at 0, 2, 7, 15, 30 min and 1, 2, 4, 6, 9, 12, 24 h after Q11 administration.
Thirty healthy male SD rats were randomly divided into three equal groups. Q11 was administrated at 6, 30, or 150 mg kg^−1 (i.g) to these three groups. Collection of orbital blood was carried out at 0, 2, 7, 15, 30 min and 1, 2, 4, 6, 9, 12, 24, 36 h after Q11 administration.

[4] = Central inhibitory effect; settings: clomethiazole: at a dose that inhibited CYP2E1
CYP2E1 [5] = target: T3, CYP2E1 (Homo sapiens, UniProt P05181); experiment: Surface plasmon resonance binding of Q11 to CYP2E1 (Biacore 8k); design: purchased Cloud-Clone Corp. Wuhan
Experimental: Surface Plasma Resonance (SPR) experiments^[ [43] ^] were carried out using the Biacore system (Biacore 8k, Cytiva). Recombinant CYP2E1 protein was purified by Cloud‐Clone Corp. Wuhan. Running buffer contained PBS (2 mM KH2PO4, 10 mM Na2HPO4, 137 mM NaCl, 2.7 mM KCl) with 0.005% Tween‐20, pH 7.4. CYP2E1 protein was diluted to 25 µg mL^−1 in immobilization buffer and bound to a CM5 chip at about 2000RU. Immobilization buffer contained 10 mM sodium acetate, pH 4.0. Samples of compound Q11 were diluted in running buffer with 125, 62.5, 31.25, 15.625, 7.8, 3.9, 1.95 µM and injected at 30 µL min^−1 for 60 s contact time followed by dissociation for 120 s. The data was fitted with Biacore Insight Evaluation software (Version 2.0).
Target sequence in this assay (P05181 whole entry, species assumed): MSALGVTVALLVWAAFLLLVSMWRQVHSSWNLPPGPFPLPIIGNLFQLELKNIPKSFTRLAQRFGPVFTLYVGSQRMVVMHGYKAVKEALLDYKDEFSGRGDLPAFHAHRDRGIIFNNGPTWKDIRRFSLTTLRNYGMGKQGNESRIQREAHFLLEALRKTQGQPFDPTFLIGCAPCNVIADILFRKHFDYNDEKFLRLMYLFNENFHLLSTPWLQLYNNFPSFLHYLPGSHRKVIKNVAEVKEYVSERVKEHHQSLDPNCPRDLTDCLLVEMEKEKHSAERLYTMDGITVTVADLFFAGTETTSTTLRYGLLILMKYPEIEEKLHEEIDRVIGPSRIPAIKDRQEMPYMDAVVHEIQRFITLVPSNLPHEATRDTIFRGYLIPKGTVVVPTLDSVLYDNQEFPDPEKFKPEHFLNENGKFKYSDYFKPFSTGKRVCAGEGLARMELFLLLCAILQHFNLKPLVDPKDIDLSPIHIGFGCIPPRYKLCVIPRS

[6] = Long-term Q11 treatment, safety, mice; settings: 26 weeks
[7] = Long-term Q11 treatment, safety, rats; settings: 12 weeks
C6 = experiment: Direct effect on glioma cells (CCK-8), C6; settings: concentrations below 100 µM
U251 cells [8] = experiment: Direct effect on glioma cells (CCK-8), U251; settings: concentrations below 100 µM
GL261 cells [9] = experiment: Direct effect on glioma cells (CCK-8), GL261; settings: concentrations below 100 µM
CYP2E1 [10] = target: T3, CYP2E1; experiment: In vitro inhibition of CYP2E1 (chlorzoxazone as substrate); assay type: biochemical; design: A 100 µL microsomal incubation system; from tissue
Experimental: Chlorzoxazone with a concentration of 62.5 µM and inhibitors with different gradient concentrations were selected to plot the inhibition of chlorzoxazone and to calculate the IC50 of the inhibitor. A Lineweaver–Burk curve was used to determine the mechanism and calculate the K i of inhibitors of CYP2E1.
as §1
Target sequence in this assay (P05181 whole entry): as the sequence (P05181 whole entry, species assumed) above

intracerebral glioma = experiment: Kaplan–Meier survival of mice with intracerebral glioma; settings: Q11 30 mg kg^−1 vs saline, P log-rank = 0.0017
[11] = tested on: microglia/macrophage of tumor microenvironment; experiment: Immunohistochemistry of CD206 and CD86 on tumor tissues; settings: Q11 group vs model
Experimental: Paraffin‐embedded specimens were cut into 4‐µm sections. After deparaffinization with xylene and rehydration, antigen retrieval was performed. For immunohistochemistry (IHC), endogenous peroxidase activity was blocked with 3% H2O2 in methanol. Primary antibodies against CYP2E1 (1:200, Abcam, ab28146), Iba‐1 (1:150, Servicebio, China), CD206 (1:150, Servicebio), and CD86 (1:150, Servicebio) were used and results were evaluated blindly by two pathologists and quantified by IPP 6.0 soft.

[12] = tested on: glioma induced by C6 cells; experiment: Intracranial orthotopic glioma model induced by C6 cells; settings: SD rat, oral 30 mg kg^−1
GBM = experiment: Intracranial glioma models overall (rats, mice, nude mice)
[13] = tested on: glioma induced by GL261 cells; experiment: Intracranial orthotopic glioma model induced by GL261 cells; settings: C57BL/6 mouse
[14] = tested on: glioma induced by U251‐LUC cells; experiment: Intracranial orthotopic glioma model induced by U251-LUC cells; settings: for bioluminescence in tumor sites: day 14 after transplantation, Q11 at 10 and 30 mg kg^−1; for brain weight / tumor diameter / tumor volume: endpoint day 36 after transplantation
GL261 cells [15] = experiment: Cell cycle of GL261 cells in co-culture with primary microglia
HMC‐3 cells = experiment: HMC-3 cells transfected with CYP2E1 plasmids: PPAR-γ and cytokines; settings: HMC-3 transfected with CYP2E1 plasmids
GL261 cells [16] = experiment: Migration (wound assay) of GL261 cells in co-culture with microglia/macrophages; settings: 24 h
[17] = tested on: inflammatory factors in TME; experiment: Inflammatory factors in the tumor microenvironment of C6 orthotopic xenograft model; settings: C6 model rats
[18] = In vivo biodistribution / BBB permeability of Q11 (plasma, cortex, hippocampus, HPLC)
U251 cells [19] = experiment: Proliferation of glioma cells in indirect co-culture with microglia/macrophages, U251; settings: co-cultured with primary microglia, RAW 264.7 or THP-1 macrophages
GL261 cells [20] = experiment: Apoptosis (Annexin V-FITC/PI) of GL261 cells in co-culture with microglia/macrophages
GL261 cells [21] = experiment: Proliferation of glioma cells in indirect co-culture with microglia/macrophages, GL261; settings: co-cultured with primary microglia, RAW 264.7 or THP-1 macrophages
primary microglia = experiment: Primary microglia induced by IL-4 and IL-13: polarization markers and signaling (western blot, immunofluorescence)
Experimental: Tissues and cells were harvested and lysed with RIPA buffer. The protein concentration was determined using a BCA kit. Samples were separated on 10% SDS‐PAGE gels and blotted onto nitrocellulose membranes (Millipore).The membranes were incubated with primary antibodies at 4 °C overnight, washed three times with TBST, and then incubated with HRP‐conjugated anti‐mouse IgG or anti‐rabbit IgG diluted in TBST containing 1% non‐fat milk at room temperature for 1 h. After final washing with TBST, the membranes were developed by using ECL.

U251 cells [22] = experiment: U251 glioma cells with conditioned medium of CYP2E1-overexpressing HMC-3 cells (proliferation, migration, apoptosis)
[23] = IL-4 and IL-13 10 ng mL^−1, 24 h
[24] = Q11 medium- and high-dose groups vs IL-4/IL-13 group

T2 sequence (P05182 whole entry): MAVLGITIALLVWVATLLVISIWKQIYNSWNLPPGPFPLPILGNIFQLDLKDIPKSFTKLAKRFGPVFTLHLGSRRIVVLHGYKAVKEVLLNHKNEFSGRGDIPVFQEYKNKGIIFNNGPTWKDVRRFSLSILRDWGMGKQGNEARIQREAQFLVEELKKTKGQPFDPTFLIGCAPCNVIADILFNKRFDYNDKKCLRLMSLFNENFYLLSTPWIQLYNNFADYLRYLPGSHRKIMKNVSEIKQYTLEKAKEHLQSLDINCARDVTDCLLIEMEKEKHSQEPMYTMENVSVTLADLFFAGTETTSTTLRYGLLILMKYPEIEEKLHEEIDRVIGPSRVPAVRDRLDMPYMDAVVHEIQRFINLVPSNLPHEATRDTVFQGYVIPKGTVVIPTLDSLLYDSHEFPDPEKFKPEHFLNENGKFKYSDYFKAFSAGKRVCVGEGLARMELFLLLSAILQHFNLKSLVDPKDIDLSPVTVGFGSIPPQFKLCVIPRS

## CC(=O)c1scnc1C [Compound Q11, 1‐(4‐methyl‐5‐thialzolyl) ethanone]
CYP2A6
  IC50: 76.2 µM
[1]
  inhibition of other CYP enzymes: no inhibition
CYP2E1 [2]; Q11 6 mg kg^−1 i.g.
  inhibition ratio in terms of clearance (CL) of diethylnitrosamine (DEN): 63.98%
CYP2E1 [2]; Q11 30 mg kg^−1 i.g.
  inhibition ratio in terms of clearance (CL) of diethylnitrosamine (DEN): 79.63%
CYP2E1 [2]; Q11 150 mg kg^−1 i.g.
  inhibition ratio in terms of clearance (CL) of diethylnitrosamine (DEN): 85.42%
[3]; male, SD, rat, blood, 30 mg kg^−1, oral administration, read-out: mean T max
  Tmax: 0.45 h
[3]; male, SD, rat, blood, 30 mg kg^−1, oral administration, read-out: mean t 1/2 (converted)
  half-life: 3.05 h
[3]; male, SD, rat, blood, oral vs intravenous, 30 mg kg^−1
  bioavailability: 94.7%
[3]; oral, dose 6 to 150 mg kg^−1
  dose dependence of pharmacokinetic parameters: proportional changes
[4]
  central inhibitory effect: does not show a central inhibitory effect
CYP2E1 [5]
  Kd: 7 µM
[6]
  adverse reactions on long-term treatment: no adverse reactions
[7]
  adverse reactions on long-term treatment: no adverse reactions
C6
  direct killing of C6 cells: did not directly kill
U251 cells [8]
  direct killing of U251 cells: did not directly kill
GL261 cells [9]
  direct killing of GL261 cells: did not directly kill
CYP2E1 [10]
  IC50: 1.64 µM
  Ki: 0.897 µM
CYP2E1 [10]; Lineweaver–Burk plot
  type of inhibition of CYP2E1: competitive‐noncompetitive mixed‐type inhibitor
Intracerebral glioma
  mean survival time: 32 days
[11]
  CD86 (M1 marker) positive cells: increased significantly
  number of CD206 (M2 marker) positive cells: significantly reduced
[12]
  growth of tumor (brain weight, tumor diameter, tumor weight): significantly suppressed
GBM; intracranial xenografts
  tumor-induced weight loss: obviously improved
GBM; orthotopic glioma models
  inhibitory effect on glioma growth compared with TMZ: superior to that of TMZ
[13]
  growth of glioma (brain weight, tumor diameter, volumes): significantly inhibited
[14]
  bioluminescence in tumor sites: lesser bioluminescence
  brain weight: markedly suppressed
  tumor diameter: markedly suppressed
  tumor volume: markedly suppressed
GL261 cells [15]
  cell cycle of GL261 cells: arrested the cell cycle in S phase
HMC‐3 cells
  changes caused by CYP2E1 overexpression (PPAR-γ, IL-4, IL-10, TGFβ up; IL-1α, IL-1β down): significantly blocked the changes
GL261 cells [16]
  migration of GL261 cells: restrained migration
[17]
  M1-like inflammatory factors (IL-1β, TNF-α): increased
  M2-like inflammatory factors (IL-4, TGF-β, IL-10, VEGFB, IL-6): significantly decreased
[18]; SD rats, 30 mg kg^−1 intragastric, about 1 h
  plasma concentration at peak: 14.75 ng/mL
[18]; SD rats, 30 mg kg^−1 intragastric, cortex and hippocampus parallel to plasma
  blood brain barrier (BBB) permeability: capable of penetrating BBB
[18]; female, SD, rat, in vivo, po, 30 mg/kg
  Tmax: ~1 h
[18]; female, SD, rat, plasma, oral, 30 mg kg^−1
  concentration at 4 h: 9.21 ng/mL
U251 cells [19]
  proliferation of U251 cells in co-culture: significantly inhibited
GL261 cells [20]
  apoptosis of GL261 cells: promoted apoptosis
GL261 cells [21]
  proliferation of GL261 cells in co-culture: significantly inhibited
Primary microglia; [23]
  Arg-1 (M2 marker) expression: significantly reduced
  iNOS (M1 marker) expression: increased
Primary microglia; [24]
  p-STAT-1 and p-NF-κB: significantly increased
  p-STAT-3 and p-STAT-6: significantly decreased
Primary microglia; after induction by IL-4 and IL-13
  PPAR-γ expression: significantly inhibited
U251 cells [22]
  tumor-promoting effects of upregulating CYP2E1 in HMC-3 (proliferation, migration, apoptosis of U251): reversed

## O=C(Nc1ccccc1)c1cc([N+](=O)[O-])ccc1Cl [GW9662, reference compound]
Primary microglia; antagonist of PPARγ, blocked the ability of rosiglitazone
  PPAR-γ expression in presence of rosiglitazone: downregulated

## CN(CCOc1ccc(CC2SC(=O)NC2=O)cc1)c1ccccn1 (centres unmarked) [Rosiglitazone, reference compound]
Primary microglia; agonist of PPAR-γ added to Q11
  effect on the action of Q11 (PPAR-γ dependence): completely blocked the effect of Q11

## Cn1nnc2c(C(N)=O)ncn2c1=O [TMZ, temozolomide, reference compound]
[14]
  bioluminescence in tumor sites: lesser bioluminescence
  brain weight: markedly suppressed
  tumor diameter: markedly suppressed
  tumor volume: markedly suppressed

## Cc1ncsc1CCCl [clomethiazole, reference compound]
[4]
  central inhibitory effect: significant central inhibitory effect
CYP2E1 [10]; chlorzoxazone 62.5 µM, read-out: IC50 of inhibition on CYP2E1
  IC50: 39.3 µM
